These results are taken from patent publication US20070225255A1, “Use of Mitochondrially Targeted Antioxidant in the Treatment of Liver Diseases and Epithelial Cancers” (priority 2004, published 2007).

Series [1] has as its system fatty acid binding protein (FABP). Briefly: Western blot of fatty acid binding protein in DDC intoxicated mice. The note with it: MitoQ treatment of DDC intoxicated animals. It counts as in vivo, mouse. Here is the method:
The protein expression level(s) of fatty acid binding protein (FABP) representing a sensitive marker for hepatocyte damage (Monbaliu D . et al., 2005, Transplant Proc. 37(1):413-416) is determined.
For orientation: In western blotting, separated proteins are transferred to a membrane and probed.

Series [2] concerns DDC intoxicated mice. The series can be described thus: Serum parameters of liver damage in DDC intoxicated mice. Format: in vivo, mouse. The note with it: DDC 3 days, simultaneous MitoQ 3, 6 and 12 mg/kg. Here is the method:
In serum from various animal groups the activity of serum liver enzymes indicating liver damage, namely bilirubin, alanine aminotransferase (ALT/GPT; in diagram represented by white bars), aspartate aminotransferase (ASAT/GOT in diagram represented by black bars) are determined according to standard protocols in clinical diagnostics by employing commercially available kits (No: 11552414; 11876805216; 11876848216 all purchased by Roche AG, Switzerland) on a Hitachi/Roche 917 Analyser.
In serum from various tested animal groups following parameters indicating liver damage, namely bilirubin, alanine aminotransferase (ALT/GPT), aspartate aminotransferase (ASAT/GOT) and glutamate dehydrogenase (GLDH) are determined according to standard protocols in clinical diagnostics employing commercially available kits (No: 11552414; 11876805216; 11876848216; 11929992 all purchased by Roche AG, Switzerland) on a Hitachi/Roche 917 Analyser.

A further series relates to HepG2 cells. Briefly: ROS production (DCF fluorescence) in HepG2 cells, basal and CoCl2 stimulated. Format: cell-based, human. As to the method: Alternatively, the generation of ROS is measured by using the fluoroprobe 5-(and-6)-chloromethyl-2′,7′-dichlorodihydrofluorescein diacetate acetyl ester (CM-H2DCFDA, Molecular Probes, Goettingen, Germany) which is converted to fluorescent dichlorofluorescien (DCF; Djordjevic T. et al., 2004, Antioxidants & Redox Signaling, 6: 713-720). To determine DCF fluorescence in a microplate reader (Tecan, Crailsheim, Germany), cells (e.g. HepG2, Hep3B or SNU-398) are grown in 96-well plates to 80% confluency. […] After several washes with HBSS to remove excess dye, fluorescence is monitored by using 480 nm excitation and 540 nm emission wavelength. DCF fluorescence is standardized to the number of viable cells using the Alamar Blue test according to the manufacturer's instructions (Biosource, Nivelles, Belgium). […] The absorbance is then measured at the wavelength of […].
In another experiment HepG2 stimulated by 100 μM CoCl2 (Sigma) are used (Bel Aiba R. S. et al., 2004,. Biol Chem. 385:249-57). […] The fluorescence is measured in a plate-reader (Tecan Safire) after 0, 10, 20 and 30 minutes (Djordjevic T, et al., 2005, Free Radic Biol Med. 38:616-30).

Series [3] concerns human cell lines intoxicated with DDC or BSO. The series can be described thus: ROS formation in cell lines intoxicated with DDC or BSO. It counts as cell-based. The note with it: simultaneous treatment at concentrations corresponding to EC50.
Text: Another simple set of experiments employing hepatoma cell lines (e.g. HepG2 or Hep3B), the SNU-398 hepatocellular carcinoma-derived cell line (ATCC No. CRL-2233, LGC Promochem, Germany), the HUH-7 human carcinoma-derived cell line (Japanese collection of Research Biosources JCRB 0403) or the Tib-73 mouse embryonic liver cell line (ATCC TIB 73=BNL CL2 derived from BAL/c mouse, MD, USA) allows measurement of ROS production in these cells upon DDC intoxication.
To determine ROS production in for example hepatoma cell lines a standard experimental protocol according to Example 8 is applied. Tested hepatoma cells are grown in 96-well plates in culture medium (DMEM supplemented with 10% FCS, Gibco) to 80% confluency, subsequently washed with HBSS and incubated in the dark with DHE (10-50 μM) for 10 minutes at 37° C. Cells are then washed twice with Hank's balanced salt solution (HBSS, Gibco) to remove excess dye. Fluorescence is monitored in a fluorescence microscope (Olympus, Hamburg, Germany).
Alternatively, the generation of ROS is measured by using the fluoroprobe 5-(and-6)-chloromethyl-2′,7′-dichlorodihydrofluorescein diacetate acetyl ester (CM-H2DCFDA, Molecular Probes, Goettingen, Germany) which is converted to fluorescent dichlorofluorescien (DCF; Djordjevic T. et al., 2004, Antioxidants & Redox Signaling, 6: 713-720). To determine DCF fluorescence in a microplate reader (Tecan, Crailsheim, Germany), cells (e.g. HepG2, Hep3B or SNU-398) are grown in 96-well plates to 80% confluency. […] After several washes with HBSS to remove excess dye, fluorescence is monitored by using 480 nm excitation and 540 nm emission wavelength. DCF fluorescence is standardized to the number of viable cells using the Alamar Blue test according to the manufacturer's instructions (Biosource, Nivelles, Belgium). […] The absorbance is then measured at the wavelength of 580 μm.
Series [4] deals with human epithelial cell cancer xenografts. Briefly: Nude mice tumor xenografts. It counts as in vivo, mouse. Here is the method:
Tumor cell lines or primary tumors that are xenografted subcutaneously according to standard methods (Li K. et al., 2003, Cancer Res., 63(13): 3593-3597) include colon adenocarcinomas, invasive ductal carcinomas of the breast, small and non-small cell lung carcinoma, prostate tumors, pancreatic tumors and stomach tumors.
Tumor-derived cell lines (grown in DMEM/10% FBS) are harvested in log-phase growth, washed twice with PBS, resuspended in 1 ml PBS (2.5×10^7 cells/ml), and injected subcutaneously into the right flank of a nude mouse (Hsd: athymic nu/nu, Harlan Winkelmann; aged between 5 and 6 weeks) at 5×10^6 cells/mouse (0.2 ml). Tumor growth is monitored every other day for the indicated periods (depending on the cell type). Tumor size is determined by the product of two perpendicular diameters and the height above the skin surface.

The conditions of series [5]: fed in drinking water for 3 to 7 days, 500 μM or 1 mM (MitoVit E 500 μM); cited from earlier work.
The test system of series [6] is DDC intoxicated mice. The series can be described thus: Short term (3 days) DDC intoxication, liver histology (H&E). The note with it: DDC 3 days.
Experimental: Liver samples prepared according to Example 1 are used for simple histologic staining such as with haematoxylin and eosin (Luna L. G., 1968, Manual of Histologic staining methods of the Armed Forces Institute of Pathology, 3rd edition. McGraw Hill, New York). Furthermore, single-label immunohistochemistry or double-label immunoflourescence microscopy is performed to detect MBs in tested animals.
In another set of experiments 3 to 12 mg/kg of MitoQ dissolved in 1% of DMSO in PBS is given intraperitoneally simultaneously to DDC intoxicated mice for 3 days and compared to control animals (positive control group represents DDC intoxicated mice whereas negative control represents non DDC intoxicated but vehicle injected animals).

As for MitoQ, the FABP protein expression entry in series [1] was “reaches almost control mice FABP protein expression values”. Besides, in the series with DDC intoxicated mice [2], the “alanine aminotransferase (ALT/GPT) serum activity” value is recorded as “most prominent reduction” and the “aspartate aminotransferase (AST/GOT) serum activity” value is listed as “reduction of enzymatic activity”. For the same substance, the bilirubin in serum entry in the series with DDC intoxicated mice [2] (data not shown) is given as “remains without any changes”. Besides, the “CoCl2-stimulated ROS production (relative DCF fluorescence)” value in the series with HepG2 cells (HepG2 cells, 100 μM CoCl2, 5 μM MitoQ) is “significantly decrease”. Moreover, the “basal ROS production (relative DCF fluorescence)” value with HepG2 cells (unstimulated HepG2 cells, 5 μM MitoQ) was “significantly decrease”. Further, in series [3], the ROS formation result is reported as “significant reduction in ROS formation”. Also, in series [4], the growth of tumors entry was “reduced growth of tumors”, the “necrosis of the tumors” value was “increased necrosis of the tumors” and the “vascularization of the tumor xenografts” value was “decreased vascularization”. The “gross signs of toxicity” value in series [5] is given as “without any gross signs of toxicity”. In the series on DDC intoxicated mice [6] (simultaneous MitoQ 6 mg/kg), the “inflammatory cells around the portal vein” value is recorded as “Absence of inflammatory cells”; the “morphology of the hepatocytes (size and morphology of nuclei, structure of cytoplasm)” value is listed as “normal”. The “liver architecture (strands of hepatocytes bordered by sinusoids)” value with DDC intoxicated mice [6] (simultaneous MitoQ in PBS/1% DMSO, 6 mg/kg) is recorded as “normal architecture again is visible”.
